Data on two molecules can be found in patent publication US7812045B2, “Antifungal triazole derivatives” (Daewoong Pharmaceutical Co., Ltd., priority 2005, dated 2010).

≈ marks a conversion by molar mass, not a printed value.

One series concerns HepG2 cells. Nature of the series: Assay for cytotoxicity in human hepatocytes (Neutral red). As to conditions: overnight incubation, absorbance at 540 nm, triplicate, compound concentration not given.
Series [1] concerns Candida albicans ATCC 32033. Nature of the series: In vitro assay for antifungal activity (MIC90). As to conditions: ATCC32033, RPMI 1640, growth read after 24 hours, duplicate, read-out: MIC90 (concentration at which 90% of the fungi were inhibited compared to the negative control). Format: cell-based. The protocol:
(§1) Fungal strains to be tested were inoculated onto Sabouraud dextrose agar, YM agar, and potato dextrose agar and cultured at 35° C. for two to three days. Individual single colonies of the yeast fungi selected out of the cultured strains were suspended in 5 ml of 0.85% sterile saline, followed by correction to adjust the absorbance thereof at 530 nm to 0.108. The suspensions were diluted serially by 1:50 and then 1:20 in RPMI 1640 media to prepare liquid inocula ranging in cell count from 1.0×10^3 to 5.0×10^3 CFU/ml. As for filamentous fungi, their spores were suspended in 0.85% sterile saline and the suspensions were corrected with sterile saline to show optical transmittance at 530 nm of 80 to 82%. A dilution of 1:50 was made with RPMI 1640 media to prepare liquid inocula having cell counts from […] to 5×10^4 CFU/ml.
(§2) Antifungal samples were prepared by diluting the compounds of the present inventions in RPMI 1640 media to serial concentrations from 0.0625 to 32 μg/ml. As a vehicle, DMSO was contained in a final concentration of 1% (V/V) in the antifungal samples. 0.1 ml of each of the dilutions in series was added to equal volume of each of the fungal inocula.

Series [2] concerns Aspergillus flavus ATCC MYA-1004. Briefly: In vitro assay for antifungal activity (MIC90). The format is cell-based. The conditions noted are these: RPMI 1640, growth read after 48 hours, duplicate, read-out: MIC90 (concentration at which 90% of the fungi were inhibited compared to the negative control). On the procedure:
as §1, §2

Another series has as its system Candida krusei ATCC 6258. Nature of the series: In vitro assay for antifungal activity (MIC90). The format is cell-based. The conditions noted are these: Pichia kudriavzevii, ATCC6258, RPMI 1640, growth read after 24 hours, duplicate, read-out: MIC90 (concentration at which 90% of the fungi were inhibited compared to the negative control). On the procedure: as §1, §2

Series [3] relates to Aspergillus fumigatus ATCC MYA-1163. Nature of the series: In vitro assay for antifungal activity (MIC90). The format is cell-based. As to conditions: RPMI 1640, growth read after 48 hours, duplicate, read-out: MIC90 (concentration at which 90% of the fungi were inhibited compared to the negative control). On the procedure: as §1, §2
Series [4] deals with Candida glabrata ATCC 34138. Briefly: In vitro assay for antifungal activity (MIC90). The format is cell-based. The conditions noted are these: Nakaseomyces glabratus, ATCC34138, RPMI 1640, growth read after 24 hours, duplicate, read-out: MIC90 (concentration at which 90% of the fungi were inhibited compared to the negative control). The protocol:
as §1, §2

For series [5], the system named is Aspergillus terreus ATCC 28301. Nature of the series: In vitro assay for antifungal activity (MIC90). The format is cell-based. As to conditions: ATCC28301, RPMI 1640, growth read after 48 hours, duplicate, read-out: MIC90 (concentration at which 90% of the fungi were inhibited compared to the negative control). The protocol: as §1, §2
In series [6] the test system is Cryptococcus neoformans ATCC 4065. Nature of the series: In vitro assay for antifungal activity (MIC90). The format is cell-based. As to conditions: ATCC4065, RPMI 1640, duplicate, read-out: MIC90 (concentration at which 90% of the fungi were inhibited compared to the negative control). The protocol: as §1, §2
In series [7] the test system is Aspergillus niger ATCC 9142. Nature of the series: In vitro assay for antifungal activity (MIC90). As to conditions: ATCC9142, RPMI 1640, growth read after 48 hours, duplicate, read-out: MIC90 (concentration at which 90% of the fungi were inhibited compared to the negative control). Format: cell-based. On the procedure: as §1, §2
Another series can be described thus: Assay for acute toxicity. Format: in vivo. The conditions noted are these: mice; oral administration, to a dose of 1000 mg/kg; observed for two weeks; suspension in 25% beta-hydroxypropyl methylcellulose base or polyethylene glycol 400.
In series [8] the test system is Candida albicans (ATCC 36082). Nature of the series: In vivo assay for antifungal activity (survival of infected mice). The conditions noted are these: ICR mice infected i.v. with Candida albicans ATCC 36082; for % Survival on Day 21: 20 mg/kg orally once a day for seven days (day 0 to day 6), groups of 10. On the procedure: Candida albicans (ATCC 36082) was grown in YM broth on a rotary shaker (200 rpm, 26° C.) for about 12 hours to a concentration of 2.5×10^7 CFU/ml and used to infect ICR mice at a dose of 0.2 ml/head via caudal veins. Suspensions or solutions of the azole compounds in a 25% beta-hydroxypropyl methylcellulose base were orally administered at a dose of 20 mg/kg to respective infected ICR mice in groups of 10, the condition and body weights of the mice were monitored, and autopsies were finally conducted. For a negative control, the vehicle alone was used while fluconazole was administered to a positive control. The mice were inoculated once with the fungal preparation on the day of commencement of the administration. The test materials of interest and the positive control material were orally administered to the inoculated mice once a day for seven days from day 0 to day 6, with the first oral administration made five hours after the fungal inoculation (day 0). The periods of time for which the infected mice lived were counted.
The number of mice which survived the fungal infection for 21 days following the inoculation was represented as % survival for each test group, and the results are given in Table 11, below. All members of the negative control were dead 8 days after the fungal infection, while all of the groups administered with Compound 50 were dead 18 days after the fungal infection.

Procedure for HepG2 cells: HepG2 cells were aliquoted at a population of 5×10^4 counts per well of 96-well plates and grown at 37° C. in a 5% CO2 incubator for 1 day. The culture medium in each well was replaced with a fresh medium containing the compounds of interest, followed by overnight incubation in the incubator. Following the addition of 100 μl of a 100 μg/ml Neutral red solution into each well, the cells were stained for 3 hours in the incubator and fixed in 1% formaldehyde with 1% CaCl2. The cells were destained in 1% glacial acetic acid plus 50% ethanol, followed by measurement for absorbance at 540 nm. Cytotoxicity was expressed as percentages of optical density relative to that of the control, treated with none of the compounds.

For `C[C@@H](N1NCc2ccccc21)[C@](O)(Cn1cncn1)c1ccc(F)cc1F` [Example 50, (2R,3R)-2-(2,4-Difluorophenyl)-3-(2H-indazol-1-yl)-1-(1H-1,2,4-triazol-1-yl)butan-2-ol], the “Cytotoxicity (percentages of optical density relative to that of the control)” value in the series with HepG2 cells was determined as 5.2%. Besides, the MIC90 in series [1] is not above 0.015 µg/mL; in series [2], 2 µg/mL (≈ 5.39 µM); with Candida krusei ATCC 6258, 0.5 µg/mL (≈ 1.35 µM); in [3], 4 µg/mL (≈ 10.8 µM); in series [4] it was 2 µg/mL (≈ 5.39 µM); in [5] it was 4 µg/mL (≈ 10.8 µM). Moreover, the figures for the MIC90 in series [6] and in series [7] were 0.063 µg/mL (≈ 0.17 µM) and 8 µg/mL (≈ 21.5 µM), respectively. Moreover, the “acute toxicity: toxic syndromes observed” value in “Assay for acute toxicity” is reported as “no toxic syndromes”. Also, the “time after the fungal infection at which all mice of the group were dead” value in [8] (20 mg/kg orally once a day for seven days) amounted to 18 days. The “% Survival on Day 21” value in series [8] came to 0%.

Take `C[C@@H](N1Cc2cc(NCc3ccc(Cl)cc3)ccc2N1)[C@](O)(Cn1cncn1)c1ccc(F)cc1F` [Example 245, (2R,3R)-3-(5-(4-chlorobenzylamino)-1H-indazol-2-yl)-2-(2,4-difluorophenyl)-1-(1H-1,2,4-triazol-1-yl)butan-2-ol]: the “Cytotoxicity (percentages of optical density relative to that of the control)” value with HepG2 cells is 9.9%. Besides, the MIC90 in series [1] is not above 0.015 µg/mL; in series [2], 0.5 µg/mL (≈ 0.979 µM); with Candida krusei ATCC 6258, 0.5 µg/mL (≈ 0.979 µM); in [3], 0.5 µg/mL (≈ 0.979 µM); in series [4] it was 4 µg/mL (≈ 7.83 µM); in series [5], 0.5 µg/mL (≈ 0.979 µM). For the same molecule, the MIC90 in series [6] was determined as 0.125 µg/mL (≈ 0.245 µM); in [7] it was 2 µg/mL (≈ 3.91 µM). In addition, in the series “Assay for acute toxicity”, the “acute toxicity: toxic syndromes observed” value is recorded as “no toxic syndromes”. Further, the “% Survival on Day 21” value in series [8] was found to be 40%.
